Measurements reported in patent publication US20240336622A1 (The Board of Regents of The University of Texas System, priority 2021, published 2024).

Columns and labels:
[1] = tested on: UWB1, A673, Fadu, H2058, H1048, MDA-MB-468 cells; assay: Cytotoxicity in cancer cell lines with different genetic background (cell titer glo); format: cell-based; settings: 1 μM for 96 hours
Description: Cells were then subjected to cell titer glo analysis. Data represent mean±SEM.

H889 and H82 cells = assay: Sensitivity of Talazoparib-resistant small cell lung cancer cells; format: cell-based

Row | SMILES | sensitivity of cell lines (UWB1, A673, Fadu, H2058, H1048, MDA-MB-468) [1] | sensitivity of H889 and H82 cells (H889 and H82 cells)
1 | CNCc1ccc(-c2[nH]c3cc(F)cc4c3c2CCNC4=O)cc1 [Rucaparib, rucaparib] | different degrees of sensitivity | –
2 | Cn1ncnc1[C@H]1c2n[nH]c(=O)c3cc(F)cc(c23)N[C@@H]1c1ccc(F)cc1 [Talazoparib, talazoparib] | – | resistant
